Data on one compound can be found in PMC9505538, “P-Glycoprotein (MDR1/ABCB1) Restricts Brain Accumulation of the Novel EGFR Inhibitor EAI045 and Oral Elacridar Coadministration Enhances Its Brain Accumulation and Oral Exposure” (Pharmaceuticals, 2022).

For one data set, the target named is T1, human ABCB1 (Homo sapiens, UniProt P08183).
T1 construct: expressed in transfected cells; host or cells: MDCK-II cells, stably transduced, generated in the authors' institute
The data set is described as follows: Transepithelial transport of EAI045, MDCK-II cells transduced with human ABCB1. The format is in vitro ADME. The conditions noted are these: for efflux ratio r (relative transport ratio): EAI045 5 μM. The method, then: (§1) Transport of EAI045 (5 μM) across epithelia was tested using cell layers of Madin–Darby Canine Kidney (MDCK-II) cells and derived clones expressing hABCB1, hABCG2, or mAbcg2 cDNA. […] In cells overexpressing hABCB1, there was clear transport of EAI045 in the apical direction (r = 5.5, Figure 1C). […] To evaluate the interaction between hABCG2 and mAbcg2 and EAI045, zosuquidar (5 μM) was added to inhibit any endogenous canine ABCB1. In cells overexpressing hABCG2, the BA transport of EAI045 was somewhat increased relative to the AB transport, resulting in an efflux ratio of 1.4 (Figure 1E).
(§2) Figure 1 In vitro transepithelial transport of EAI045 (5 μM) using MCDK-II parental cells (A,B) or transduced with human ABCB1 (C,D), human ABCG2 (E,F), or murine Abcg2 (G,H) cDNA. At t = 0 EAI045 was added in the donor compartment (either apical or basolateral). At 1, 2, and 4 h EAI045 was quantified in the acceptor compartment and the cumulative total transported amount per well was plotted (n = 3). Zosuquidar (5 μM) was added to inhibit the human and/or the endogenous ABCB1, while Ko143 (5 μM) was added to inhibit the human or murine ABCG2. r, relative transport ratio. […] Points, mean; bars, SD. TEXT PRINTED IN THE PICTURE: (A) no label printed: Parental: r = 1.7 | (B) no label printed: Parental + Zos.: r = 1.1 | (C) no label printed: hABCB1: r = 5.5 | (D) no label printed: hABCB1 + Zos.: r = 1.3 | (E) no label printed: hABCG2 + Zos.: r = 1.4 | (F) no label printed: hABCG2 + Zos. + Ko143: r = 1.1 | (G) no label printed: mAbcg2 + Zos.: r = 1.8 | (H) no label printed: mAbcg2 + Zos. + Ko143: r = 1.4
(§3) Madin–Darby Canine Kidney (MDCK-II) cells (ECACC 00062107) stably transduced with human (h) ABCB1, hABCG2, or mouse (m) Abcg2 cDNA were generated in our institute between 1998 and 2005. […] In short, cells were allowed to grow an intact monolayer in 3 days, which was monitored with transepithelial electrical resistance (TEER) measurements, both before and after the transport phase. […] Proper functionality of these cell lines was monitored by continual testing with a variety of drug substrates.

Data set [1] has as its system L858R/T790M EGFR mutant kinase. Further details: method as in PMID 27251290. The settings on record: cited from earlier work.
Another data set deals with T2, human ABCG2 (Homo sapiens, UniProt Q9UNQ0).
T2 construct: expressed in transfected cells; host or cells: MDCK-II cells, stably transduced, generated in the authors' institute
T2 sequence (Q9UNQ0 1-655): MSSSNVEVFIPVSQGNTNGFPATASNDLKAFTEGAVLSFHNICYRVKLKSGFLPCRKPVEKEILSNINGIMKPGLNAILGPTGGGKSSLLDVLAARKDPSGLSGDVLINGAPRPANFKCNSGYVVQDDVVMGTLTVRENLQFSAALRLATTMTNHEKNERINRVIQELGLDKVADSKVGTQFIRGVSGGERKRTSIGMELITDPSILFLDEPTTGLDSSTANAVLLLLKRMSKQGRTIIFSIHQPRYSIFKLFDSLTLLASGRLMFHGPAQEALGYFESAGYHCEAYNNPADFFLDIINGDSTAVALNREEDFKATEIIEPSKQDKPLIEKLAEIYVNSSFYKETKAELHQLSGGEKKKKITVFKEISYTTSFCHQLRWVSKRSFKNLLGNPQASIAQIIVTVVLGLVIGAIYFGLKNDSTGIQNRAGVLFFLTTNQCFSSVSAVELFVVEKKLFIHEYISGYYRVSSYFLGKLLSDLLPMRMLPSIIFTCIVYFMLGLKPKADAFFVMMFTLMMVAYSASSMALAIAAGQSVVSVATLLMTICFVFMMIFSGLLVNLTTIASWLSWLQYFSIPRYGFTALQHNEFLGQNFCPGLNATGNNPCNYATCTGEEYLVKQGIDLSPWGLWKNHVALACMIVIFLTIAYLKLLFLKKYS
The data set is described as follows: Transepithelial transport of EAI045, MDCK-II cells transduced with human ABCG2. The format is in vitro ADME. The settings on record: for efflux ratio r (relative transport ratio): EAI045 5 μM. The method, then:
as §1, §2, §3

T1 sequence (P08183 whole entry): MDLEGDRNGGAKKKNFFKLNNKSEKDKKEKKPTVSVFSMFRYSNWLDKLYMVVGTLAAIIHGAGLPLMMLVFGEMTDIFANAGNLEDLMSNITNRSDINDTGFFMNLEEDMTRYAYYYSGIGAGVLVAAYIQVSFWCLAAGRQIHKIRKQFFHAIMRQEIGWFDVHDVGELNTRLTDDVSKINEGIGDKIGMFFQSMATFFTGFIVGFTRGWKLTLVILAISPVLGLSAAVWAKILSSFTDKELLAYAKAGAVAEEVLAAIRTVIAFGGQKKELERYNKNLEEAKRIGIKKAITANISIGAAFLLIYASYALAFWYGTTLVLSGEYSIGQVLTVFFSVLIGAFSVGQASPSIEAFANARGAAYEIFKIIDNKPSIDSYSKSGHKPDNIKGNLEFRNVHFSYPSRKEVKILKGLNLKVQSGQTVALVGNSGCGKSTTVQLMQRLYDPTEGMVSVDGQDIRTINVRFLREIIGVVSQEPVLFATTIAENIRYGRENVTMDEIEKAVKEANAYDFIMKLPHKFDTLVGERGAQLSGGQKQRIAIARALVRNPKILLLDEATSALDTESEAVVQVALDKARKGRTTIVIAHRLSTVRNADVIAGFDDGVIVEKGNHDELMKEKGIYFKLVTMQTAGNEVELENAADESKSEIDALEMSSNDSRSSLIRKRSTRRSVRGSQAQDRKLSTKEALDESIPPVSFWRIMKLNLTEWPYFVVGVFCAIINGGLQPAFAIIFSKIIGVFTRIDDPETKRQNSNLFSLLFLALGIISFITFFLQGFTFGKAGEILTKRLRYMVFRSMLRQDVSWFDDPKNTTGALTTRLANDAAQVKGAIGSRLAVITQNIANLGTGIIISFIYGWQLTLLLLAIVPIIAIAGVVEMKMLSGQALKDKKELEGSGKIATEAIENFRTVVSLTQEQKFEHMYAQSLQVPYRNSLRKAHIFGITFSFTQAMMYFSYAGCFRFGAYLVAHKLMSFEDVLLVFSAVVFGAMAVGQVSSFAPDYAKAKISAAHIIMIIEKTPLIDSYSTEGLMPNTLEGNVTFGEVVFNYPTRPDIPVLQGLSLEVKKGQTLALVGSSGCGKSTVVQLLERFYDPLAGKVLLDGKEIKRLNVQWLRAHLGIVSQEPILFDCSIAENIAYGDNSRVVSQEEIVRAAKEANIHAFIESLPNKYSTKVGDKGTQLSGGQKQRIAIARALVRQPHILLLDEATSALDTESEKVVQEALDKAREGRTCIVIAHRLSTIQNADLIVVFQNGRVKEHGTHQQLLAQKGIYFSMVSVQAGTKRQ

Regarding `O=C(Nc1nccs1)C(c1cc(F)ccc1O)N1Cc2ccccc2C1=O` (stereo not shown) [EAI045], the “efflux ratio r (relative transport ratio)” value on human ABCB1 (hABCB1 + zosuquidar 5 μM) is 1.3; on human ABCB1 (hABCB1, no inhibitor), 5.5; at human ABCG2 (hABCG2 + zosuquidar 5 μM), 1.4; at human ABCG2 (hABCG2 + zosuquidar 5 μM + Ko143 5 μM) it was 1.1. In addition, the “transport substrate of hABCB1” value at human ABCB1 (in vitro) was “good transport substrate”. Further, in data set [1], the “inhibition of the EGFR mutant relative to wild-type EGFR” value is “most selective inhibition”. Besides, the “transport by human ABCG2” value on human ABCG2 (in vitro) is given as “at best slightly transported”.
